Structures are written as SMILES.

Holding throughout (type): cell-based, human
Experiment [1] deals with MCF7 cells. The experiment can be described thus: Tumorsphere formation assay. The following applies: MCF7, cultured 15 days, compared to DMSO, FIG. 8. How it is done:
A tumorsphere formation assay was performed in order to determine whether the selected MKI-1 can effectively reduce the formation of tumorsphere in cancer cells, Breast cancer cells MCF7 (2500-10000 cells) was suspended in serum-free DMEM/F12 (weIGENE) containing 1% penicillin, B-27 (1:50; invitrogen), 20 ng/mL epidermal cell growth factor (R&D Systems) and 20 ng/mL fibroblast growth factor (R&D Systems) and cultured on plates with low adhesion rate. After 24 hours, the cells were treated with MASTL kinase inhibitors (AT13148, MKI-1 and GKI-1), respectively, and cultured for 15 days, and then the diameter of the tumorsphere was measured and quantified, which was shown in FIG. 8.

The subject of experiment [2] is MCF7 cells. The experiment can be described thus: Colonogenic assay and western blotting with 2.5 Gy radiation, MCF7. The following applies: for sensitivity to radiation therapy (colony number): MCF7, 2.5 Gy, compared to DMSO, FIG. 10A/10B. As to the method:
A colonogenic assay was performed in order to confirm whether the sensitivity to the radiation treatment effect can be increased when MCF7 cancer cell line was treated with MKI-1. First, breast cancer cells MCF7 (500-1000 cells) were placed in a 60-mm tissue culture medium on a 60 mm culture plate, and treated with MASTL kinase inhibitors (AT13148, MKI-1 and GKI-1), respectively, and then was treated with 2.5 Gy radiation by Biobeam GM8000 (Gamma-Gamma-Service Medical GmbH, Leipzig, Germany) and the control group was not treated with radiation. After 10 to 14 days, the cell colonies were fixed with methanol and stained with 0.5% crystal violet, and the results were shown in FIG. 10A, and the number of colonies shown in the above results was quantified using Image J software to show in 10B, and then western blotting was performed and the results thereof were shown in FIG. 10C.
On the technique in general: Immunoblotting shows a protein as a band on a membrane.

Experiment [3] relates to MCF7 cells. The experiment can be described thus: 3D culture spheroid formation. The following applies: MCF7 3D culture, AT13148 2 μM, GKI-1 10 μM, MKI-1 10 μM, FIG. 9. As to the method:
3D culture was performed according to the protocol of the manufacturing company TheWell Bioscience. It was inoculated into 24-wells containing a DMEM mixture containing 10,000 MCF7 cells in an MCF7 cell:hydrogel solution in a ratio of 1:3 (v/v) and VitroGel™ 3D-RGD diluted with 0.1% PBS in a ratio of 1:3 (v/v) of a hydrogel:diH2O. Thereafter, incubation was performed at 37° C. for 15 minutes to stabilize the VitroGel 3D-RGD hydrogel. To cover the hydrogel, the same volume of DMEM as the hydrogel was added, and the next day, the hydrogel was treated with a DMSO base drug containing DMSO, AT13148 (2 μM), GKI-1 (10 μM) and MKI-1 (10 μM). The medium was exchanged every 2 days for 14 to 20 days.

Experiment [4] deals with BT549 cells. Put plainly: WST-8 cell viability assay, breast cancer cell line BT549. The following applies: FIG. 6; for cell viability, BT549: 3.70, 11.11, 33.33 and 100 μM. As to the method: (§1) In addition, the cell line in this experiment was distributed from ATCC (American Type Culture Collection; Manassas, VA). Human-derived tumor cell lines, breast cancer cell lines MCF7 and T47D was cultured in DMEM medium containing 10% fetal bovine serum (FBS; HyClone, South Logan, UT) and 1% penicillin/streptomycin (Corning, NY, USA) at 37° C. and 5% CO2, and the BT549 breast cancer cell line was cultured in RPMI 1640 (Welgene, Daegu, Korea) as a medium used under the same conditions. Human-derived normal cell line MCF10A was cultured in DMEM/F12 (Invitrogen) medium containing 5% horse serum (Invitrogen), 1% penicillin/streptomycin, 20 ng/ml EGF (Peprotech, London, UK), […] (Sigma-Aldrich, MO, USA), 100 ng/ml cholera toxin (Cholera Toxin, Sigma-Aldrich) and 10 μg Insulin (Sigma-Aldrich) at 37° C. and 5% CO2.
(§2) In order to confirm whether the selected MKI-1 can kill only cancer cells, an experiment was performed by treating with MKI-1 and measuring whether the cell viability of breast cancer cell lines and normal cell lines was changed. WST-8 analysis (Cyto X™ cell viability assay kit, LPS solution, Daejeon, Korea) was performed according to the manufacturer's protocol. Cancer cells MCF7 and BT549 and normal cell line MCF10A cells were inoculated into a 96-well plate, cultured for 24 hours, and then treated with MASTL kinase inhibitors at various concentrations (3.70, 11.11, 33.33 and 100 μM). Thereafter, the absorbance was measured at 450 nm using a Versamax micro plate reader (Molecular Devices, CA, USA), and the results were shown in FIG. 6.

Experiment [5] concerns MCF7 cells. The experiment can be described thus: WST-8 cell viability assay, breast cancer cell line MCF7. The note with it: for cell viability, MCF7: 3.70, 11.11, 33.33 and 100 μM. How it is done:
as §1
Briefly, MCF7 and MCF10A cells were seeded into 96-well plates, incubated for 24 hours, and then was treated with 42 inhibitor candidates. Among the compounds, the multi-AGC kinase inhibitor AT13148 was used as a positive control. Thereafter, the absorbance was measured at 450 nm using a Versamax microplate reader (Molecular Devices, CA, USA), and the results of the experiment were shown in FIG. 1A.
as §2
Background: Formazan colour is commonly taken as a measure of viable cells.

The mark [6] stands for this setting: MCF7, after radiation treatment, FIG. 10C.

With `O=C(Nc1nc2ccccc2[nH]1)c1cccc(-n2cccc2)c1` [MKI-1, N-1H-benzimidazol-2-yl-3-(1H-pyrrol-1-yl) benzamide], the tumorsphere diameter result in experiment [1] was “significantly decreased”. Further, the “sensitivity to radiation therapy (colony number)” value in experiment [2] is listed as “significantly higher”. Further, in experiment [2] (setting [6]), the “expression levels of cleaved-PARP and phosphorylated Chk2” value is listed as “increased”; the “expression levels of procaspase-2” value is “decreased”. Also, the “size of cancer cell spheroid” value in experiment [3] is given as “significantly reduced”. Also, the “survival rate of cancer cells, BT549” value in experiment [4] (33.33 μM or more) is listed as “significantly reduced”. Also, the “cell viability, BT549” value in experiment [4] was “decreases cell viability in a dose-dependent manner”. Besides, the “survival rate of cancer cells, MCF7” value in experiment [5] (33.33 μM or more, FIG. 6) is “significantly reduced”. In addition, the “cell viability, MCF7” value in experiment [5] (FIG. 6) is given as “decreases cell viability in a dose-dependent manner”. In addition, the “growth of the treated cancer cell line (MCF7)” value in experiment [5] (screen of 42 single compounds, FIG. 1A) is reported as “significantly inhibited”.
Consider `Clc1ccc(Nc2cccc(-c3cn[nH]c3)c2)cc1` [GKI-1, N-(4-chlorophenyl)-3-(1H-pyrazol-4-yl)aniline, reference compound], for which the tumorsphere diameter result in experiment [1] was “hardly decreased”. The “sensitivity to radiation therapy (colony number)” value in experiment [2] was “no synergistic effect”. Moreover, the “size of cancer cell spheroid” value in experiment [3] was “hardly decreased”. In addition, the “cell viability, BT549” value in experiment [4] is recorded as “decreases cell viability in a dose-dependent manner”. In addition, in experiment [5] (FIG. 6), the “cell viability, MCF7” value is “decreases cell viability in a dose-dependent manner”.

The record behind these values is patent US12029730B2, “Pharmaceutical composition for preventing or treating cancer, containing N-1H-benzimidazol-2-yl-3-(1H-pyrrole-1-yl)benzamide as active ingredient” (KOREA INSTITUTE OF RADIOLOGICAL & MEDICAL SCIENCES, priority 2018, dated 2024).
